{
  "source": "ChEMBL document CHEMBL1138294",
  "about": "“Design and development of water-soluble curcumin conjugates as potential anticancer agents” (J Med Chem, 2007)",
  "key": {"PC-3 [1]": {"system": "PC-3", "experiment": "Cytotoxicity against human PC3 cells at 10 uM", "type": "functional"}, "PC-3 [2]": {"system": "PC-3", "experiment": "Cytotoxicity against human PC3 cells", "type": "functional, cell-based"}, "MIA PaCa-2": {"system": "MIA PaCa-2", "experiment": "Cytotoxicity against human MIA PaCa2 cells", "type": "functional, cell-based"}, "BXPC-3": {"system": "BXPC-3", "experiment": "Cytotoxicity against human BxPC3 cells", "type": "functional, cell-based"}, "PC-3 [3]": {"system": "PC-3", "experiment": "Cytotoxicity against human PC3 cells at 20 uM", "type": "functional"}, "LS174T": {"system": "LS174T", "experiment": "Cytotoxicity against human LS174T cells", "type": "functional, cell-based"}},
  "data": [
    {"smiles": "COc1cc(/C=C/C(=O)CC(=O)/C=C/c2ccc(O)c(OC)c2)ccc1O", "note": "[CURCUMIN]", "values": [
      {"measurement": "Activity", "setting": "PC-3 [1]", "value": 65, "unit": "%"},
      {"measurement": "IC50", "setting": "PC-3 [2]", "value": 12, "unit": "µM"},
      {"measurement": "IC50", "setting": "MIA PaCa-2", "value": 9, "unit": "µM"},
      {"measurement": "IC50", "setting": "BXPC-3", "value": 2.9, "unit": "µM"},
      {"measurement": "Activity", "setting": "PC-3 [3]", "value": 90, "unit": "%"},
      {"measurement": "IC50", "setting": "LS174T", "value": 6.5, "unit": "µM"}
    ]}
  ]
}
